US20180368410A1, “MICROBIOCIDAL OXADIAZOLE DERIVATIVES” (SYNGENTA PARTICIPATIONS AG, priority 2015, published 2018)

Tests used:
[1] = tested on: Puccinia recondita f. Sp. Tritici; assay: Puccinia recondita f. sp. tritici / wheat / leaf disc preventative (brown rust); type: in vivo, Puccinia recondita f. sp. tritici on wheat cv. Kanzler; conditions: foliar, 200 ppm in the applied formulation, inoculated 1 day after application, assessed 7 to 9 days after application, vs untreated control leaf disks, read-out: disease control
Method: Leaf disks or leaf segments of various plant species are cut from plants grown in a greenhouse. The cut leaf disks or segments are placed in multiwell plates (24-well format) onto water agar. The leaf disks are sprayed with a test solution before (preventative) or after (curative) inoculation. Compounds to be tested are prepared as DMSO solutions (max. 10 mg/ml) which are diluted to the appropriate concentration with 0.025% Tween20 just before spraying. The inoculated leaf disks or segments are incubated under defined conditions (temperature, relative humidity, light, etc.) according to the respective test system. A single evaluation of disease level is carried out 3 to 14 days after inoculation, depending on the pathosystem. Percent disease control relative to the untreated check leaf disks or segments is then calculated. Wheat leaf segments cv. Kanzler were placed on agar in multiwell plates (24-well format) and sprayed with the formulated test compound diluted in water. The leaf disks were inoculated with a spore suspension of the fungus 1 day after application. The inoculated leaf segments were incubated at 19′C and 75% relative humidity (rh) under a light regime of 12 hours light/12 hours darkness in a climate cabinet and the activity of a compound was assessed as percent disease control compared to untreated when an appropriate level of disease damage appears in untreated check leaf segments (7 to 9 days after application). The following compounds at 200 ppm in the applied formulation give at least 80% disease control in this test when compared to untreated control leaf disks under the same conditions, which show extensive disease development.

[2] = tested on: Puccinia recondita f. Sp. Triticil; assay: Puccinia recondita f. sp. tritici / wheat / leaf disc curative (brown rust); type: in vivo, Puccinia recondita f. sp. tritici on wheat cv. Kanzler; conditions: foliar, 200 ppm in the applied formulation, applied 1 day after inoculation, assessed 6 to 8 days after application, vs untreated control leaf disks, read-out: disease control
Method: (§1) Leaf disks or leaf segments of various plant species are cut from plants grown in a greenhouse. The cut leaf disks or segments are placed in multiwell plates (24-well format) onto water agar. The leaf disks are sprayed with a test solution before (preventative) or after (curative) inoculation. Compounds to be tested are prepared as DMSO solutions (max. 10 mg/ml) which are diluted to the appropriate concentration with 0.025% Tween20 just before spraying. The inoculated leaf disks or segments are incubated under defined conditions (temperature, relative humidity, light, etc.) according to the respective test system. A single evaluation of disease level is carried out 3 to 14 days after inoculation, depending on the pathosystem. Percent disease control relative to the untreated check leaf disks or segments is then calculated.
Wheat leaf segments cv. Kanzler are placed on agar in multiwell plates (24-well format). The leaf segments are then inoculated with a spore suspension of the fungus. Plates were stored in darkness at 19° C. and 75% relative humidity. The formulated test compound diluted in water was applied 1 day after inoculation. The leaf segments were incubated at 19° C. and 75% relative humidity under a light regime of 12 hours light/12 hours darkness in a climate cabinet and the activity of a compound was assessed as percent disease control compared to untreated when an appropriate level of disease damage appears in untreated check leaf segments (6 to 8 days after application).
(§2) The following compounds at 200 ppm in the applied formulation give at least 80% disease control in this test when compared to untreated control leaf disks under the same conditions, which show extensive disease development.

[3] = tested on: Phakopsora pachyrhizi; assay: Phakopsora pachyrhizi / soybean / leaf disc preventative (Asian soybean rust); type: in vivo, Phakopsora pachyrhizi on soybean; conditions: foliar, 200 ppm in the applied formulation, inoculated one day after application, assessed 12 to 14 days after application, vs untreated control leaf disks, read-out: disease control
Method: as §1
Soybean leaf disks are placed on water agar in multiwell plates (24-well format) and sprayed with the formulated test compound diluted in water. One day after application leaf discs are inoculated by spraying a spore suspension on the lower leaf surface. After an incubation period in a climate cabinet of 24-36 hours in darkness at 20° C. and 75% rh leaf disc are kept at 20° C. with 12 h light/day and 75% rh. The activity of a compound is assessed as percent disease control compared to untreated when an appropriate level of disease damage appears in untreated check leaf disks (12 to 14 days after application).
as §2

[4] = tested on: Glomerella Lacenarium (Colletotrichum lacenarium); assay: Glomerella lagenarium (Colletotrichum lagenarium) liquid culture / cucumber / preventative (anthracnose); type: cell-based; conditions: 20 ppm in the applied formulation, liquid culture in PDB, 24° C., inhibition of growth measured photometrically 3 to 4 days after application, vs untreated control, read-out: disease control
Method: Mycelia fragments or conidia suspensions of a fungus prepared either freshly from liquid cultures of the fungus or from cryogenic storage, are directly mixed into nutrient broth. DMSO solutions of the test compound (max. 10 mg/ml) are diluted with 0.025% Tween20 by a factor of 50 and 10 μl of this solution is pipetted into a microtiter plate (96-well format). The nutrient broth containing the fungal spores/mycelia fragments is then added to give an end concentration of the tested compound. The test plates are incubated in the dark at 24° C. and 96% relative humidity. The inhibition of fungal growth is determined photometrically after 2 to 7 days, depending on the pathosystem, and percent antifungal activity relative to the untreated check is calculated.
Conidia of the fungus from cryogenic storage are directly mixed into nutrient broth (PDB—potato dextrose broth). After placing a (DMSO) solution of test compound into a microtiter plate (96-well format), the nutrient broth containing the fungal spores is added. The test plates are incubated at 24° C. and the inhibition of growth is measured photometrically 3 to 4 days after application.
The following compounds at 20 ppm in the applied formulation give at least 80% disease control in this test when compared to untreated control under the same conditions, which show extensive disease development.

CC1(C(=O)NCc2ccc(-c3noc(C(F)(F)F)n3)cc2)CCCCC1 [Compound 1.21, 1-methyl-N-[[4-[5-(trifluoromethyl)-1,2,4-oxadiazol-3-yl]phenyl]methyl] cyclohexanecarboxamide]
≥ 80%: pest or weed control at 200 ppm [1] | pest or weed control at 200 ppm [2] | pest or weed control at 200 ppm [3] | inhibition of growth at 20 ppm [4]

CC1(C(=O)NCCc2ccc(-c3noc(C(F)(F)F)n3)cc2)COC1 [Compound 1.104, 3-methyl-N-[2-[4-[5-(trifluoromethyl)-1,2,4-oxadiazol-3-yl]phenyl]ethyl]oxetane-3-carboxamide]
≥ 80%: pest or weed control at 200 ppm [1] | pest or weed control at 200 ppm [2] | pest or weed control at 200 ppm [3] | inhibition of growth at 20 ppm [4]

O=C(NCc1ccc(-c2noc(C(F)(F)F)n2)c(F)c1)C1CCC1 [Compound 1.93, N-[[3-fluoro-4-[5-(trifluoromethyl)-1,2,4-oxadiazol-3-yl]phenyl]methyl] cyclobutanecarboxamide]
≥ 80%: pest or weed control at 200 ppm [1] | pest or weed control at 200 ppm [2] | pest or weed control at 200 ppm [3] | inhibition of growth at 20 ppm [4]

CC1(C(=O)NCc2ccc(-c3noc(C(F)(F)F)n3)c(F)c2F)CC1 [Compound 1.78, N-[[2,3-difluoro-4-[5-(trifluoromethyl)-1,2,4-oxadiazol-3-yl]phenyl]methyl]-1-methyl-cyclopropanecarboxamide]
≥ 80%: pest or weed control at 200 ppm [1] | pest or weed control at 200 ppm [2] | pest or weed control at 200 ppm [3] | inhibition of growth at 20 ppm [4]

O=C(NCc1ccc(-c2noc(C(F)(F)F)n2)cc1F)C1CC1(F)F (stereo not shown) [Compound 1.61, 2,2-difluoro-N-[[2-fluoro-4-[5-(trifluoromethyl)-1,2,4-oxadiazol-3-yl]phenyl]methyl] cyclopropanecarboxamide]
≥ 80%: pest or weed control at 200 ppm [1] | pest or weed control at 200 ppm [2] | pest or weed control at 200 ppm [3] | inhibition of growth at 20 ppm [4]

O=C(NCc1ccc(-c2noc(C(F)(F)F)n2)cc1)C1CCCC1 [Compound 1.16, N-[[4-[5-(trifluoromethyl)-1,2,4-oxadiazol-3-yl]phenyl]methyl] cyclopentanecarboxamide]
≥ 80%: pest or weed control at 200 ppm [1] | pest or weed control at 200 ppm [2] | pest or weed control at 200 ppm [3] | inhibition of growth at 20 ppm [4]

O=C(NCc1ccc(-c2noc(C(F)(F)F)n2)cc1F)C1CCCO1 (stereo not shown) [Compound 1.49, N-[[2-fluoro-4-[5-(trifluoromethyl)-1,2,4-oxadiazol-3-yl]phenyl]methyl]tetrahydrofuran-2-carboxamide]
≥ 80%: pest or weed control at 200 ppm [1] | pest or weed control at 200 ppm [2] | pest or weed control at 200 ppm [3] | inhibition of growth at 20 ppm [4]

O=C(NCc1ccc(-c2noc(C(F)(F)F)n2)c(F)c1)C1CC1(F)F (stereo not shown) [Compound 1.91, 2,2-difluoro-N-[[3-fluoro-4-[5-(trifluoromethyl)-1,2,4-oxadiazol-3-yl]phenyl]methyl] cyclopropanecarboxamide]
≥ 80%: pest or weed control at 200 ppm [1] | pest or weed control at 200 ppm [2] | pest or weed control at 200 ppm [3] | inhibition of growth at 20 ppm [4]

CC1(C(=O)NCc2ccc(-c3noc(C(F)(F)F)n3)cc2F)CC1 [Compound 1.67, N-[[2-fluoro-4-[5-(trifluoromethyl)-1,2,4-oxadiazol-3-yl]phenyl]methyl]-1-methyl-cyclopropanecarboxamide]
≥ 80%: pest or weed control at 200 ppm [1] | pest or weed control at 200 ppm [2] | pest or weed control at 200 ppm [3] | inhibition of growth at 20 ppm [4]

CC1(C(=O)NCc2ccc(-c3noc(C(F)(F)F)n3)c(F)c2)COC1 [Compound 1.69, N-[[3-fluoro-4-[5-(trifluoromethyl)-1,2,4-oxadiazol-3-yl]phenyl]methyl]-3-methyl-oxetane-3-carboxamide]
≥ 80%: pest or weed control at 200 ppm [1] | pest or weed control at 200 ppm [2] | pest or weed control at 200 ppm [3] | inhibition of growth at 20 ppm [4]

O=C(NCc1ccc(-c2noc(C(F)(F)F)n2)c(F)c1F)C1CCC1 [Compound 1.75, N-[[2,3-difluoro-4-[5-(trifluoromethyl)-1,2,4-oxadiazol-3-yl]phenyl]methyl] cyclobutanecarboxamide]
≥ 80%: pest or weed control at 200 ppm [1] | pest or weed control at 200 ppm [2] | pest or weed control at 200 ppm [3] | inhibition of growth at 20 ppm [4]

CC1CC1C(=O)NCc1ccc(-c2noc(C(F)(F)F)n2)cc1 (stereo not shown) [Compound 1.24, 2-methyl-N-[[4-[5-(trifluoromethyl)-1,2,4-oxadiazol-3-yl]phenyl]methyl] cyclopropanecarboxamide]
≥ 80%: pest or weed control at 200 ppm [1] | pest or weed control at 200 ppm [2] | pest or weed control at 200 ppm [3] | inhibition of growth at 20 ppm [4]

O=C(NCc1ccc(-c2noc(C(F)(F)F)n2)cc1)C1CCC1 [Compound 1.22, N-[[4-[5-(trifluoromethyl)-1,2,4-oxadiazol-3-yl]phenyl]methyl] cyclobutanecarboxamide]
≥ 80%: pest or weed control at 200 ppm [1] | pest or weed control at 200 ppm [2] | pest or weed control at 200 ppm [3] | inhibition of growth at 20 ppm [4]

CC1CC1C(=O)NCc1ccc(-c2noc(C(F)(F)F)n2)cc1F (stereo not shown) [Compound 1.66, N-[[2-fluoro-4-[5-(trifluoromethyl)-1,2,4-oxadiazol-3-yl]phenyl]methyl]-2-methyl-cyclopropanecarboxamide]
≥ 80%: pest or weed control at 200 ppm [1] | pest or weed control at 200 ppm [2] | pest or weed control at 200 ppm [3] | inhibition of growth at 20 ppm [4]

O=C(NCc1ccc(-c2noc(C(F)(F)F)n2)c(F)c1F)C1CC1(F)F (stereo not shown) [Compound 1.72, N-[[2,3-difluoro-4-[5-(trifluoromethyl)-1,2,4-oxadiazol-3-yl]phenyl]methyl]-2,2-difluoro-cyclopropanecarboxamide]
≥ 80%: pest or weed control at 200 ppm [1] | pest or weed control at 200 ppm [2] | pest or weed control at 200 ppm [3] | inhibition of growth at 20 ppm [4]

O=C(CC1CCCC1)NCc1ccc(-c2noc(C(F)(F)F)n2)cc1 [Compound 1.7, 2-cyclopentyl-N-[[4-[5-(trifluoromethyl)-1,2,4-oxadiazol-3-yl]phenyl]methyl]acetamide]
≥ 80%: pest or weed control at 200 ppm [1] | pest or weed control at 200 ppm [2] | pest or weed control at 200 ppm [3] | inhibition of growth at 20 ppm [4]
